Experiment [1] has as its target SARS-CoV-2 3CLP (Severe acute respiratory syndrome coronavirus 2, UniProt P0DTD1). The experiment is described as follows: SARS-CoV-2 3CLP inhibition, FRET-based cleavage assay. The following applies: 100 μM substrate, 37° C., 10 min incubation, pH 7.8. The class given is biochemical.
Experiment [2] has as its system SARS-CoV-2. The experiment is described as follows: SARS-CoV-2 in vitro plaque reduction assay in Vero E6 cells. The format is cell-based. The note with it: plaques counted after 48 h, >5 μM = did not reduce plaque numbers by half at 10 μM, read-out: SARS-CoV-2 Antiviral EC50. In general terms: Plaques are areas of infected cells; plaque reduction assays count them against a control.

Where [3] appears, read: 80 nM SARS-CoV-2 3CLP, read-out: 3CL Protease IC50.
The mark [4] stands for this setting: Severe acute respiratory syndrome coronavirus 2, Vero C1008, MOI 0.0001 pfu/cell.
[5] abbreviates: 3CL Protease IC50, 80 nM SARS-CoV-2 3CLP.

Where two headings read alike, the source gives them in different places.

The IC50 is the midpoint of a concentration-inhibition curve. One may read the EC50 as the midpoint of the concentration-response curve. Turning to `CC(C)C[C@H](NC(=O)c1cc2ccccc2o1)C(=O)N[C@H](C#N)C[C@@H]1CCCNC1=O` [Compound 79, N-[(2S)-1-({(1S)-1-cyano-2-[(3S)-2-oxopiperidin-3-yl]ethyl}amino)-4-methyl-1-oxopentan-2-yl]-1-benzofuran-2-carboxamide], the IC50 in experiment [1] (setting [3]) was 250 nM. For the same compound, the EC50 in experiment [2] (setting [4]) stood at 4500 nM.

On to `COc1cccc2[nH]c(C(=O)N[C@@H](CC(C)C)C(=O)N[C@@H](C[C@@H]3CCCNC3=O)C(=O)COC(=O)C(C)(C)C)cc12` [Compound 1, (3S)-3-{[N-(4-methoxy-1H-indole-2-carbonyl)-L-leucyl]amino}-2-oxo-4-[(3S)-2-oxopiperidin-3-yl]butyl 2,2-dimethylpropanoate], for which the IC50 in experiment [1] (setting [3]) was determined as 64 nM. Moreover, the EC50 in experiment [2] (setting [4]) is > 5000 nM.

Turning to `COc1nccc2c1cc(C(=O)N[C@@H](CC(C)(C)C)C(=O)N[C@H](C#N)C[C@@H]1CCCNC1=O)n2C` [Compound 100, N-[(2S)-1-({(1S)-1-cyano-2-[(3S)-2-oxopiperidin-3-yl]ethyl}amino)-4,4-dimethyl-1-oxopentan-2-yl]-4-methoxy-1-methyl-1H-pyrrolo[3,2-c]pyridine-2-carboxamide], the IC50 in experiment [1] (setting [3]) was 220 nM. Further, the EC50 in experiment [2] (setting [4]) is > 5000 nM.

`COc1cccc2[nH]c(C(=O)N[C@@H](CC(C)C)C(=O)N[C@@H](C[C@@H]3CCCNC3=O)C(=O)COC(=O)C3(C#N)CC3)cc12` [Compound 12, (3S)-3-{[N-(4-methoxy-1H-indole-2-carbonyl)-L-leucyl]amino}-2-oxo-4-[(3S)-2-oxopiperidin-3-yl]butyl 1-cyanocyclopropane-1-carboxylate]: the IC50 in experiment [1] (setting [3]) turned out to be 16 nM. For the same compound, in experiment [2] (setting [4]), the EC50 is > 5000 nM.

On to `COc1cccc2[nH]c(C(=O)N[C@@H](CC(C)C)C(=O)N[C@@H](C[C@@H]3CCCNC3=O)C(=O)COC(=O)c3ccccn3)cc12` [Compound 3, (3S)-3-{[N-(4-methoxy-1H-indole-2-carbonyl)-L-leucyl]amino}-2-oxo-4-[(3S)-2-oxopiperidin-3-yl]butyl pyridine-2-carboxylate], for which, in experiment [1] (setting [5]), the IC50 amounted to 130 nM. For the same compound, the EC50 in experiment [2] (setting [4]) was > 5000 nM.

For the compound `COc1cccc2[nH]c(C(=O)N[C@@H](CC(C)C)C(=O)N[C@@H](C[C@@H]3CCCNC3=O)C(=O)COC(=O)C3(C)OCCCO3)cc12` [Compound 16, (3S)-3-{[N-(4-methoxy-1H-indole-2-carbonyl)-L-leucyl]amino}-2-oxo-4-[(3S)-2-oxopiperidin-3-yl]butyl 2-methyl-1,3-dioxane-2-carboxylate], in experiment [1] (setting [5]), the IC50 is 13 nM. The EC50 in experiment [2] (setting [4]) is > 5000 nM.

With `CC(C)C[C@H](NC(=O)C1CCCC1)C(=O)N[C@@H](C[C@@H]1CCCNC1=O)C(=O)COC(=O)c1cccnc1` [Compound 17, (3S)-3-{[N-(cyclopentanecarbonyl)-L-leucyl]amino}-2-oxo-4-[(3S)-2-oxopiperidin-3-yl]butyl pyridine-3-carboxylate], the half-maximal inhibitory concentration (IC50) in experiment [1] (setting [3]) came to 4990 nM. For the same compound, the EC50 in experiment [2] (setting [4]) was > 5000 nM.

Turning to `CC(C)C[C@H](NCC1Cc2ccccc2O1)C(=O)N[C@H](C#N)C[C@@H]1CCCNC1=O` (single isomer, unassigned) [Compound 97], the IC50 in experiment [1] (setting [3]) was > 500000 nM. The EC50 in experiment [2] (MOI 0.0001 pfu/cell) was > 5000 nM.

With `COc1cccc2[nH]c(C(=O)N[C@@H](CC(C)C)C(=O)N[C@@H](C[C@@H]3CCCNC3=O)C(=O)COc3ccc(S(C)(=O)=O)cc3)cc12` [Compound 30, N-[(2S)-1-({(2S)-4-[4-(methanesulfonyl)phenoxy]-3-oxo-1-[(3S)-2-oxopiperidin-3-yl]butan-2-yl}amino)-4-methyl-1-oxopentan-2-yl]-4-methoxy-1H-indole-2-carboxamide], the IC50 in experiment [1] (setting [3]) came to 53 nM. Further, in experiment [2] (setting [4]), the EC50 was > 5000 nM.

On to `COc1cccc2[nH]c(C(=O)N[C@@H](CC(C)C)C(=O)N[C@@H](C[C@@H]3CCCNC3=O)C(=O)COC(=O)c3ccc(C(C)(C)C)nc3)cc12` [Compound 11, (3S)-3-{[N-(4-methoxy-1H-indole-2-carbonyl)-L-leucyl]amino}-2-oxo-4-[(3S)-2-oxopiperidin-3-yl]butyl 6-tert-butylpyridine-3-carboxylate], for which the IC50 in experiment [1] (setting [3]) worked out at 19 nM. In addition, the EC50 in experiment [2] (setting [4]) is > 5000 nM.

Turning to `CC(C)C[C@H](NS(=O)(=O)c1cccc2c1OCCO2)C(=O)N[C@H](C#N)C[C@@H]1CCCNC1=O` [Compound 82, N-{(1S)-1-cyano-2-[(3S)-2-oxopiperidin-3-yl]ethyl}-N^2-(2,3-dihydro-1,4-benzodioxine-5-sulfonyl)-L-leucinamide], the IC50 in experiment [1] (setting [3]) was determined as 2400 nM. Further, the EC50 in experiment [2] (setting [4]) was > 5000 nM.

Consider `COc1cccc2[nH]c(C(=O)N[C@@H](CC(C)C)C(=O)N[C@@H](C[C@@H]3CCCNC3=O)C(=O)COC(=O)c3cccnc3C(F)(F)F)cc12` [Compound 10, (3S)-3-{[N-(4-methoxy-1H-indole-2-carbonyl)-L-leucyl]amino}-2-oxo-4-[(3S)-2-oxopiperidin-3-yl]butyl 2-(trifluoromethyl)pyridine-3-carboxylate], for which the IC50 in experiment [1] (setting [3]) worked out at 52 nM. In addition, the half-maximal effective concentration (EC50) in experiment [2] (setting [4]) is > 5000 nM.

As for `Cc1cc(C)c(C(=O)OCC(=O)[C@H](C[C@@H]2CCCNC2=O)NC(=O)[C@H](CC(C)(C)C)NC(=O)[C@H]2CCCO2)c(C)n1` [Compound 87, (3S)-3-({4-methyl-N-[(2R)-oxolane-2-carbonyl]-L-leucyl}amino)-2-oxo-4-[(3S)-2-oxopiperidin-3-yl]butyl 2,4,6-trimethylpyridine-3-carboxylate], the IC50 in experiment [1] (setting [3]) came out at 200 nM. Also, the EC50 in experiment [2] (setting [4]) was 1900 nM.

On to `CC(C)C[C@H](NCc1ncco1)C(=O)N[C@H](C#N)C[C@@H]1CCCNC1=O` [Compound 91, N-{(1S)-1-cyano-2-[(3S)-2-oxopiperidin-3-yl]ethyl}-N^2-[(1,3-oxazol-2-yl)methyl]-L-leucinamide], for which the IC50 in experiment [1] (setting [3]) is 37000 nM. In addition, in experiment [2] (setting [4]), the EC50 is > 5000 nM.

Regarding `COc1cccc2[nH]c(C(=O)N[C@@H](CC(C)C)C(=O)N[C@@H](C[C@@H]3CCCNC3=O)C(=O)COC(=O)C3(C(F)(F)F)CCCCC3)cc12` [Compound 20, (3S)-3-{[N-(4-methoxy-1H-indole-2-carbonyl)-L-leucyl]amino}-2-oxo-4-[(3S)-2-oxopiperidin-3-yl]butyl 1-(trifluoromethyl)cyclohexane-1-carboxylate], in experiment [1] (setting [3]), the IC50 came out at 86 nM. The EC50 in experiment [2] (setting [4]) came to 710 nM.

As to `CC(C)C[C@H](NC(=O)C1(O)CCCC1)C(=O)N[C@H](C#N)C[C@@H]1CCCNC1=O` [Compound 76, N-{(1S)-1-cyano-2-[(3S)-2-oxopiperidin-3-yl]ethyl}-N^2-(1-hydroxycyclopentane-1-carbonyl)-L-leucinamide], in experiment [1] (setting [3]), the IC50 was 950 nM. The EC50 in experiment [2] (setting [4]) is > 5000 nM.

In the case of `CC(C)C[C@H](NC(=O)OCc1ccccc1)C(=O)N[C@H](C#N)C[C@@H]1CCCNC1=O` [Compound 66, N^2-[(benzyloxy)carbonyl]-N-{(1S)-1-cyano-2-[(3S)-2-oxopiperidin-3-yl]ethyl}-L-leucinamide], the IC50 in experiment [1] (setting [3]) amounted to 340 nM. In experiment [2] (setting [4]), the EC50 is > 5000 nM.

Regarding `CC(C)(C)C[C@H](NC(=O)[C@@H]1CCCN1)C(=O)N[C@H](C#N)C[C@@H]1CCCNC1=O` [Compound 90, prolyl-N-{(1S)-1-cyano-2-[(3S)-2-oxopiperidin-3-yl]ethyl}-4-methyl-L-leucinamide], in experiment [1] (setting [3]), the IC50 was 1100 nM. Moreover, the EC50 in experiment [2] (setting [4]) is > 5000 nM.

The values are drawn from patent US20220204476A1, “RNA VIRUS INHIBITOR COMPOUNDS AND USES THEREOF” (The Governors of the University of Alberta, priority 2020, published 2022).
